The supplement of paper PMC10307832

How the values were obtained:
Assay in all cases: relative viability (nuclei count vs DMSO), 5 days (fraction); higher = more cells survive
DM3189 = compound: C1CN(CCN1)C2=CC=C(C=C2)C3=CN4C(=C(C=N4)C5=CC=NC6=CC=CC=C56)N=C3 [DM3189]
Procedure, shortened: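 Hoechst staining, done together with fixation and permeabilisation, marked nuclei for 4× imaging and MetaXpress counting. This followed 5 days without medium change after lung cancer cell lines, kept overnight at 37 °C in 1536-well plates, were pinned with five library-drug doses (not always all listed) spaced by √10 on vehicle-anchored plates. Viability is the ratio of treated-well to vehicle-well nuclei, expressed as a median across plates. Plates passed only at control CV below 25% with at least one doubling.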

DM3189 + Navitoclax = compound: C1CN(CCN1)C2=CC=C(C=C2)C3=CN4C(=C(C=N4)C5=CC=NC6=CC=CC=C56)N=C3 [DM3189] + CC1(C)CCC(c2ccc(Cl)cc2)=C(CN2CCN(c3ccc(C(=O)NS(=O)(=O)c4ccc(N[C@H](CCN5CCOCC5)CSc5ccccc5)c(S(=O)(=O)C(F)(F)F)c4)cc3)CC2)C1 [Navitoclax] (partner 0.5 µM)
Procedure, shortened: (§1)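 Medians of duplicate plates are given as relative viability. That measure is the nuclei count in treated wells divided by the count in vehicle wells. Counts were taken on 4× images of lung cancer cell lines in 1536-well plates, 5 days after pin-tool dosing the day after seeding with one drug alone or a fixed anchor-drug dose plus five library-drug doses (not always all listed) in √10 steps.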

DM3189 + Lapatinib = compound: C1CN(CCN1)C2=CC=C(C=C2)C3=CN4C(=C(C=N4)C5=CC=NC6=CC=CC=C56)N=C3 [DM3189] + CS(=O)(=O)CCNCc1ccc(-c2ccc3ncnc(Nc4ccc(OCc5cccc(F)c5)c(Cl)c4)c3c2)o1 [Lapatinib] (partner 2 µM)
Procedure, shortened: as §1

DM3189 + Dasatinib = compound: C1CN(CCN1)C2=CC=C(C=C2)C3=CN4C(=C(C=N4)C5=CC=NC6=CC=CC=C56)N=C3 [DM3189] + Cc1nc(Nc2ncc(C(=O)Nc3c(C)cccc3Cl)s2)cc(N2CCN(CCO)CC2)n1 [Dasatinib] (partner 0.075 µM)
Procedure, shortened: as §1

DM3189 + Vorinostat = compound: C1CN(CCN1)C2=CC=C(C=C2)C3=CN4C(=C(C=N4)C5=CC=NC6=CC=CC=C56)N=C3 [DM3189] + O=C(CCCCCCC(=O)Nc1ccccc1)NO [Vorinostat] (partner 1 µM)
Procedure, shortened: as §1

Cell Line	relative viability (DM3189; 0.08 µM)	relative viability (DM3189; 0.253 µM)	relative viability (DM3189; 2.53 µM)	relative viability (DM3189 + Navitoclax; first compound 0.08 µM)	relative viability (DM3189 + Navitoclax; first compound 0.253 µM)	relative viability (DM3189 + Navitoclax; first compound 2.53 µM)	relative viability (DM3189 + Lapatinib; first compound 0.08 µM)	relative viability (DM3189 + Lapatinib; first compound 0.253 µM)	relative viability (DM3189 + Lapatinib; first compound 2.53 µM)	relative viability (DM3189 + Dasatinib; first compound 0.08 µM)	relative viability (DM3189 + Dasatinib; first compound 0.253 µM)	relative viability (DM3189 + Dasatinib; first compound 2.53 µM)	relative viability (DM3189 + Vorinostat; first compound 0.08 µM)	relative viability (DM3189 + Vorinostat; first compound 0.253 µM)	relative viability (DM3189 + Vorinostat; first compound 0.8 µM)	relative viability (DM3189 + Vorinostat; first compound 2.53 µM)	relative viability (DM3189; 0.8 µM)	relative viability (DM3189 + Navitoclax; first compound 0.8 µM)	relative viability (DM3189 + Lapatinib; first compound 0.8 µM)	relative viability (DM3189 + Dasatinib; first compound 0.8 µM)
NCI-H1944	1.19	0.991	1.02	1.07	1.03	1.15	0.884	0.765	0.803	0.232	0.217	0.219	0.592	0.567	0.467	0.565	–	–	–	–
NCI-H2085	1	0.933	1.03	1.2	1.16	1.11	0.806	0.77	0.848	0.28	0.274	0.28	0.87	0.742	0.795	0.906	1.04	1.19	0.765	0.318
NCI-H1650	1.09	0.923	0.928	1.24	1.11	1.13	0.838	0.806	0.777	0.333	0.391	0.316	0.505	0.539	0.638	0.644	0.901	1.21	0.71	0.304
NCI-H1395	1.03	0.834	0.945	1.22	0.958	1.17	1.1	0.92	0.896	0.461	0.39	0.415	1.08	0.616	–	0.731	0.697	0.74	0.724	0.397
